The values that follow come from article PMC9555642 (PLoS ONE, 2022).

Experiment [1] deals with T1, HDAC3 (Homo sapiens, UniProt O15379).
T1 construct: purchased Eurofins Pharma Discovery Services 2083
The experiment can be described thus: HDAC enzymatic activity (Eurofins). The class given is biochemical. The note with it: Class I; ACY-1083 mean of two separate measurements, Ricolinostat and Tubastatin A one measurement.

In experiment [2] the target is T2, Sigma-1 receptor (Homo sapiens, UniProt Q99720).
T2 construct: purchased Eurofins Pharma Discovery Services
The experiment can be described thus: Secondary pharmacology panel (Eurofins). The class given is binding.
Protocol: (§2) Second pharmacology screening was performed at Eurofins Pharma Discovery Services in a panel of 190 in vitro radioligand binding and enzyme assays covering a diverse set of enzymes, receptors, ion channels, and transporters.

For experiment [3], the target named is T3, cyclooxygenase 2 (COX2) (Homo sapiens, UniProt P35354).
T3 construct: purchased Eurofins Pharma Discovery Services
T3 sequence (P35354 18-604): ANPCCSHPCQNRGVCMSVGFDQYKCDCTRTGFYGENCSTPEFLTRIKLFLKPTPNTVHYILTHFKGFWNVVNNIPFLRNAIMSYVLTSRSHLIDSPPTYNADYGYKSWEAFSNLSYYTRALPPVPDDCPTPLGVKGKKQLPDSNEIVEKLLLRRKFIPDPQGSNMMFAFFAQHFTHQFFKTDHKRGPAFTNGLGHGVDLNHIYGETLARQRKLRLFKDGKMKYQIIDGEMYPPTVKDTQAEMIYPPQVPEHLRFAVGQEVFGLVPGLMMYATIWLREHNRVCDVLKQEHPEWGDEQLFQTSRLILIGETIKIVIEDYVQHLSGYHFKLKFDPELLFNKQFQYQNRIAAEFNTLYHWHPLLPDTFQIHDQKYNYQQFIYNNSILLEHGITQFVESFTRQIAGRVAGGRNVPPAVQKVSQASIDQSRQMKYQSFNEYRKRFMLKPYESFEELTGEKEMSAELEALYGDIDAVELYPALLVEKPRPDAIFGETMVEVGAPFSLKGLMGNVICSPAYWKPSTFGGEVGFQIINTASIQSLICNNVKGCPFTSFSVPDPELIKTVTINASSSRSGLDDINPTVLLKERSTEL
The experiment can be described thus: Secondary pharmacology panel (Eurofins). The class given is biochemical.
Protocol: as §2

Experiment [4] concerns healthy HBEC at ALI cultures. The experiment can be described thus: Cell velocity (Particle Image Velocimetry). The class given is cell-based, human. The note with it: TNF-challenged healthy HBEC, brought down to unchallenged levels, 0.0411. The source says: (§1) For cilia beating frequency (CBF) and cell velocity measurements, donor cells of primary healthy HBECs were amplified on rat tail collagen I coated flasks and seeded on 12-mm-diameter Transwell inserts.
Cell migration was quantified by performing Particle Image Velocimetry (PIVlab) on Matlab using multi-pass cross-correlation analysis with decreasing interrogation window size on image pairs to obtain the spatial velocity field as described previously.

For experiment [5], the target named is T4, HDAC10 (Homo sapiens, UniProt Q969S8).
T4 construct: purchased Eurofins Pharma Discovery Services 2662
T4 sequence (Q969S8 1-669): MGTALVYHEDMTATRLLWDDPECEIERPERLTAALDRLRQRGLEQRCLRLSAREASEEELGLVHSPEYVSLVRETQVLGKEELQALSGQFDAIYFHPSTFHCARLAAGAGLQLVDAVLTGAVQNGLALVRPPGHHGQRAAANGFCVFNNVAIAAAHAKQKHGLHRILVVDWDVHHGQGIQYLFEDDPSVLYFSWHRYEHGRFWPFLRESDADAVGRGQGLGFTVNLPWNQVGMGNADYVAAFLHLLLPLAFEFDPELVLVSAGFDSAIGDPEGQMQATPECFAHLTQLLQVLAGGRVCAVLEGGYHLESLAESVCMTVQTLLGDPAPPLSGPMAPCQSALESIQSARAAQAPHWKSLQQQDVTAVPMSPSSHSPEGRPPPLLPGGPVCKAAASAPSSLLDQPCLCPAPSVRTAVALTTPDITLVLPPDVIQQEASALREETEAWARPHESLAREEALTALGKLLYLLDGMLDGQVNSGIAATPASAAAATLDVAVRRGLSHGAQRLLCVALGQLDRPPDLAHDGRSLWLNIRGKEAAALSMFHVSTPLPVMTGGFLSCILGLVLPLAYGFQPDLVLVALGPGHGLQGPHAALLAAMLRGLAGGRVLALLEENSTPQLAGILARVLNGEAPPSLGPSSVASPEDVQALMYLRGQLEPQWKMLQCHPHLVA
In words: HDAC enzymatic activity (Eurofins). The class given is biochemical. The note with it: Class IIB; ACY-1083 mean of two separate measurements, Ricolinostat and Tubastatin A one measurement.

Experiment [6] concerns the target T5, HDAC11 (Homo sapiens, UniProt Q96DB2).
T5 construct: purchased Eurofins Pharma Discovery Services 2663
T5 sequence (Q96DB2 1-347): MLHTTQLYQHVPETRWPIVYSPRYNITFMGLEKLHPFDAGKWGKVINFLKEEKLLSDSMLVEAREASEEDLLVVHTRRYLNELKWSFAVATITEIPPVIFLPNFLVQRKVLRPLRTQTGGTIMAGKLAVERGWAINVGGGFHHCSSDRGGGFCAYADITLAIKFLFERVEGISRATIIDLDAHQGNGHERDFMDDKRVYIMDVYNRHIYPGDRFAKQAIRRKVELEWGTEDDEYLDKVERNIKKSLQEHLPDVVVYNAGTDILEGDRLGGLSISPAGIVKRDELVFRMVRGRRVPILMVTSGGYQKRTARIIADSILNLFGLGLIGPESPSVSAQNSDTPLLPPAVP
The experiment can be described thus: HDAC enzymatic activity (Eurofins). The class given is biochemical. To be noted: Class IV; ACY-1083 mean of two separate measurements, Ricolinostat and Tubastatin A one measurement.

In experiment [7] the test system is healthy HBEC at ALI cultures. In words: Ciliary beat frequency. The class given is cell-based, human. To be noted: TNF-challenged healthy HBEC. How it is done:
as §1
CBF was quantified for the differentiated healthy HBECs treated with vehicle, TNF, and TNF + ACY-1083. The plates containing the pseudostratified epithelia were incubated at 37 °C with 5% CO2 in the 3i Marianis/Yokogawa Spinning-Disk Confocal microscope (Leica Microsystems, Sugar land, USA) as reported in our previous publications. High-speed time-lapse videos were taken at 32X air at 100 Hz with a total of 250 frames using a scientific Hamamatsu C11440-42U30 CMOS camera (Bridgewater, USA). Five areas were imaged per insert. A Matlab (R2020a) script (validated against SAVA) (previously described in [58] was used to determine average CBF per video, to generate a heat map indicating CBF.

T1 sequence (O15379 whole entry): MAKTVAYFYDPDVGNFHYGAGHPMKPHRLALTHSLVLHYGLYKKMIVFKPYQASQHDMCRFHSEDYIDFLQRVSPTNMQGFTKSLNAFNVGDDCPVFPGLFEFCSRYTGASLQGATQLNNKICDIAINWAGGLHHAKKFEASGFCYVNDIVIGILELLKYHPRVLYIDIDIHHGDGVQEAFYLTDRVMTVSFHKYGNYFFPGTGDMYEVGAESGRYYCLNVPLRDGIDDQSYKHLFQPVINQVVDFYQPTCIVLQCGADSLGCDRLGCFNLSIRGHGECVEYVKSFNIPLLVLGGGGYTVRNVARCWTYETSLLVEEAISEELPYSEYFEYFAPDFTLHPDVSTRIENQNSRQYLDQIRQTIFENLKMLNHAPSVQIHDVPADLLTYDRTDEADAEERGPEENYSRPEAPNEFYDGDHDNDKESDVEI
T1 sequence (Q9Y618 395-489 partner limits assumed): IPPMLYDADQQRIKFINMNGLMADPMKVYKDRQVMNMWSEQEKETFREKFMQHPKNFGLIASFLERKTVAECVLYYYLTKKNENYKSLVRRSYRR
T2 sequence (Q99720 whole entry, species assumed): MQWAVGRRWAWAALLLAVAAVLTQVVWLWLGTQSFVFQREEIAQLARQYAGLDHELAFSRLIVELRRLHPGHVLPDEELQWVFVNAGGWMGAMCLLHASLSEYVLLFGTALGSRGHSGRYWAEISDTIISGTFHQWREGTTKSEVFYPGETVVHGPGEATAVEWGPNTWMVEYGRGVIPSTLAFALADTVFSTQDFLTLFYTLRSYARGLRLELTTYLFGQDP

For the substance ACY-1083, the IC50 in experiment [1] is above 87.5 µM; in experiment [2] it was 17 µM; in experiment [3], 6.48 µM; in experiment [5] it was 18.5 µM; in experiment [6], 18.2 µM. In addition, the cellular velocity entry in experiment [4] is reported as “counteract this increase”. For the same substance, the CBF entry in experiment [7] is “no effect”.

As a reminder, the IC50 is the concentration that inhibits the measured activity by half. A high value points to weaker potency.
